Assay results published in patent US11965100B2, “Aggregation-induced emission luminogens useful for cancer cell discrimination and monitoring” (The Hong Kong University of Science and Technology, priority 2020, dated 2024).

Tests used:
[1] = tested on: HeLa cells; test: Mitochondrion-nucleolus migration on CCCP treatment, HeLa cells; format: cell-based; conditions: pre-stained 2 μM 30 min, 20 μM CCCP 5 min
Experimental: (§1) FIG. 16 Live HeLa cells were pre-stained with 2 μM IVP-02 for 30 min, and treated with 20 μM CCCP for 5 min. Then CCCP was removed away and fresh culture medium was added for another 5 min. λex=488 nm, λem=500-650 nm. Scale bar=20 μm.
FIG. 19 Live HeLa cells were pre-stained with 2 μM IVP-04, 22, 42, 06, 62 for 30 min, and treated with 20 μM CCCP for 5 min. Then CCCP was removed away and fresh culture medium was added for another 5 min, respectively. λex=488 nm, λem=500-650 nm. Scale bar=20 μm.
(§2) Monitoring cell viability is a highly valuable task for the fundamental researches in biology, pathology, and medicine. Then we investigated whether IVP-02 could monitor cell viability. Δψm is a very important indicator to characterize cell viability. With the loss of cell viability, Δψm would decrease, while with the recovery of cell viability, Δψm would also recover to the normal level. […] Carbonyl cyanide m-chlorophenyl hydrazone (CCCP) is a type of protonophore and can cause rapid acidification of mitochondria by collapsing Δψm. Cancer cells A549 were pre-stained with IVP-02 for 30 min. In FIG. 15A, in the beginning, IVP-02 stained mitochondria clearly. […] Hydrogen peroxide (H2O2) can inhibit the oxidation respiratory chain that would cause the loss of cell viability. Then live A549 and HeLa cells were pre-stained with IVP-02, and treated with 10 mM H2O2.
(§3) In addition to IVP-02, we further investigated whether other IVP molecules could monitor the viability of cancer cells through mitochondrion-nucleolus migration was investigated. A549 cells were pre-stained with IVP-04, 22, 42, 06, and 62, respectively, and then CCCP was added.

[2] = tested on: mitochondria in HeLa and A549 cells; test: Co-stain with mitochondrial probe MitoTracker Deep Red FM (MTDR); format: cell-based; conditions: A549 and HeLa, 2 μM dye, co-stain 0.2 μM MTDR
Experimental: FIG. 6 CLSM images of live HeLa and A549 cells stained with 2 μM IVP-02 and 0.2 μM MTDR, respectively. IVP-02: λex=488 nm, λem=500-650 nm; MTDR: λex=640 nm, λem=650-700 nm. Scale bar=20 μm.
In the above pictures, filamentous structures in cytoplasm of cancer cells were observed, which were typical morphology of mitochondria. Then co-stain experiments with commercial mitochondrial probe MitoTracker™ Deep Red FM (MTDR) were carried out (FIG. 6).
It was speculated that the membrane permeability of the probe was a key factor for its selectivity to cancer cells, since the plasma membrane of cancer cells was reported to be more permeable than normal cells. Consequently, IVP-02 was modified by lengthening the alkyl chain at the pyridine salt side and indole side, respectively, to tune the membrane permeability. The synthetic route to these new IVP molecules is depicted in Scheme 1. Their chemical structures were fully characterized by ^1H NMR, ^13C NMR, and ^19F NMR. Then cancer cells A549 were stained with the five new molecules, respectively. […] The co-stain experiments with MTDR also confirmed their location in mitochondria in A549 cells in FIG. 7C. In addition to A549 cells, the same experiments were also carried in HeLa cells (FIGS. 8 and 9).

[3] = tested on: A549 cells; test: Mitochondrion-nucleolus migration on CCCP treatment, A549 cells; format: cell-based, human; conditions: for migration back to mitochondria after removal of CCCP: A549, CCCP removed, fresh medium 5 min; for migration from mitochondria to nucleolus after addition of CCCP: A549, pre-stained 2 μM 30 min, 20 μM CCCP 5 min
Experimental: as §1, with “15” for “16”, “Live A549 cells (A) and live A549 co-cultured with COS 7 cells, live” for “Live”, “HeLa co-cultured with COS7” for “HeLa”, “cells (B)” for “cells”
FIG. 18 Live A549 cells were pre-stained with 2 μM IVP-04, 22, 42, 06, 62 for 30 min, and treated with 20 μM CCCP for 5 min. Then CCCP was removed away and fresh culture medium was added for another 5 min, respectively. λex=488 nm, λem=500-650 nm. Scale bar=20 μm.
as §2, §3

[4] = tested on: cancer cells (A549 and HeLa) co-cultured with normal cells (COS7 and HLF); test: CLSM imaging of cancer cells co-cultured with normal cells; format: cell-based; conditions: A549 co-cultured with COS7, 2 μM, 30 min
Experimental: (§4) FIG. 5 CLSM images of live cancer cells (A549 and HeLa) co-cultured with normal cells (COS7 and HLF) (A), and the images of A549 and HLF cells seeded on different cover glasses (Scale bar=20 μm) (B) stained with 2 μM IVP-02 for 30 min (Scale bar=50 μm), respectively. λex=488 nm, λem=500-650 nm.
(§5) FIG. 10 CLSM images of live cancer cells (A549) co-cultured with normal cells (COS7) (A), and the images of A549 and HLF cells seeded on different cover glasses Scale bar=20 μm (B) stained with 2 μM IVP-02, 04, 06, 22, 42, and 62 for 30 min Scale bar=50 μm, respectively. (The first column in B is the same as FIG. 3B) λex=488 nm, λem=500-650 nm.
FIG. 11 CLSM images of live cancer cells (HeLa) co-cultured with normal cells (COS7), stained with 2 μM IVP-02, 04, 06, 22, 42, and 62 for 30 min, respectively. λex=488 nm, λem=500-650 nm. Scale bar=20 μm.
FIG. 12 CLSM images of live cancer cells (A549) co-cultured with normal cells (HLF), stained with 2 μM IVP-02, 04, 06, 22, 42, and 62 for 30 min, respectively. λex=488 nm, λem=500-650 nm. Scale bar=20 μm.
(§6) The bioimaging properties of IVP-02 in live cells were investigated by confocal laser scanning microscopy (CLSM). Cancer cells (A549 and HeLa) and normal cells (COS7 and HLF) were stained with IVP-02, respectively. […] So IVP-02 holds the high potential to differentiate cancer and normal cells. To verify this speculation, cancer and normal cells were co-cultured and stained with IVP-02. […] To precisely confirm the selectivity of IVP-02 to cancer cells, cancer cells A549 and normal cells HLF (A549 and HLF are both human lung cells) were seeded on different cover glasses, respectively. Then the two cover glasses were put in the same dish and stained with IVP-02 at the same time.
(§7) Cancer cells A549 co-cultured with normal cells COS7 were stained with these molecules, respectively. […] Then HeLa cells co-cultured with COS7 cells (FIG. 11), and A549 cells co-cultured with HLF cells (FIG. 12) were also stained with these molecules, the results were similar with that in A549 cells co-cultured with COS7 cells. In addition to co-culturing, A549 cells and HLF cells were also seeded on different cover glasses and stained with these molecules. […] Based on the imaging results above, it can be concluded that the selectivity of these IVP molecules to cancer cells is also based on the length of alkyl chain at pyridinium salt side. Lengthening the alkyl chain at the pyridinium salt side will eliminate the selectivity to cancer cells.

[5] = tested on: RNA; test: RNA fluorescence titration, Scatchard equation; format: binding; conditions: comparison in words
Source text: FIG. 20 (A) Fluorescence titration (left) of IVP-02 with RNA and the fitted curve (right) according to Scatchard equation. (B) The binding mode of IVP-02 to RNA. (C) Binding constant (k) and binding energy (E) of IVP molecules to RNA.
FIG. 21 Fluorescence titration (left) of IVP-04, 22, 42, 06, and 62 with RNA and the fitted curve (middle) according to Scatchard equation, and the binding mode (right) of them to RNA.
Why IVP-06 and 62 cannot stain the nucleolus in cancer cells to a significant extent? On one hand, when IVP molecules located in mitochondria, in addition to the electrostatic interaction between the cation and inner membrane negative charge of mitochondria, the hydrophobic interaction between alkyl chain and phospholipids also existed. When Δψm decreased, although the electrostatic interaction weakened, the hydrophobic interaction still remained. IVP-06 and 62 have longer alkyl chain than the other four IVP molecules, so the hydrophobic interaction between IVP-06 and 62 and phospholipids is stronger than that of the other four IVP molecules. […] In FIGS. 20A and 21, with the increase of RNA concentration, the fluorescence intensity of all the molecules increases. […] In FIG. 20B and FIG. 21, IVP molecules bound to the minor grooves of RNA, and the binding energy (E) was calculated and summarized in FIG. 20C.

[6] = tested on: A549 and HLF cells; test: CLSM imaging of A549 and HLF cells seeded on different cover glasses in the same dish; format: cell-based, human; conditions: 2 μM, 30 min
Experimental: as §4, §5, §6, §7

[7] = Quantum yield in the solid state; format: physicochemical
Source text: IVPI-2 is able to stain mitochondria in healthy live cancer cells. However, when Δψm decreases, IVPI-2 migrates into nucleolus. Since IVPI-2 is target-changeable according to the change of mitochondrial physiology, the chemical structure of IVPI-2 was modified in order to enhance the mitochondria to nucleolus migration. Iodide ion is a well-known effective fluorescent quencher due to its heavy-atom effect. The quantum yield of IVP-02 in the solid state is 4.3%, which is about 3 times than that of IVPI-02 (1.3%). An Exemplary synthetic route to certain embodiments of the compounds described herein is depicted in Scheme 1.

quantum yield [7] [%] | Compound | nucleolus staining after addition of CCCP [1] | mitochondrial staining in cancer cells [2] | migration back to mitochondria after removal of CCCP [3] | migration from mitochondria to nucleolus after addition of CCCP [3] | staining of co-cultured cancer and normal cells [4] | binding constant (k) to RNA [5] | staining of A549 and HLF cells on different cover glasses [6]
 | CCn1cc(/C=C/c2cc[n+](CC)cc2)c2ccccc21 [IVP-22] | could stain nucleolus | can selectively stain mitochondria in cancer cells | could migrate back in mitochondria | could enter nucleus and stain nucleolus | only stain A549 cells |  | 
 | CCCCCC[n+]1ccc(/C=C/c2c[nH]c3ccccc23)cc1 [IVP-06] | cannot | can selectively stain mitochondria in cancer cells |  | did not enter the nuclear to a substantial degree | can stain both A549 and COS7 cells | lower than that of IVP-02, 04, 22, and 42 | could stain both A549 and HLF cells
 | CCCC[n+]1ccc(/C=C/c2c[nH]c3ccccc23)cc1 [IVP-04] | could stain nucleolus | can selectively stain mitochondria in cancer cells | could migrate back in mitochondria | could enter nucleus and stain nucleolus | can stain both A549 and COS7 cells |  | could stain both A549 and HLF cells
 | CCCCn1cc(/C=C/c2cc[n+](CC)cc2)c2ccccc21 [IVP-42] | could stain nucleolus | can selectively stain mitochondria in cancer cells | could migrate back in mitochondria | could enter nucleus and stain nucleolus | only stain A549 cells |  | 
1.3 | CC[n+]1ccc(/C=C/c2c[nH]c3ccccc23)cc1.[I-] [IVPI-02, reference compound] |  |  |  |  |  |  | 
 | CCCCCCn1cc(/C=C/c2cc[n+](CC)cc2)c2ccccc21 [IVP-62] | cannot | can selectively stain mitochondria in cancer cells |  | did not enter the nuclear to a substantial degree | only stain A549 cells | lower than that of IVP-02, 04, 22, and 42 | 
